The source of these data is publication PMC7391726, “Fatty acid mimetic PBI-4547 restores metabolic homeostasis via GPR84 in mice with non-alcoholic fatty liver disease” (Scientific Reports, 2020).

Where two headings read alike, the source gives them in different places.

Assay type in all cases: cell-based
One experiment addresses T1, GPR40 (Homo sapiens, UniProt O14842).
T1 construct: expressed in transfected cells; host or cells: HEK293
Description: BRET Gαq / Gαi2 activation biosensors in HEK293 cells transfected with GPR40. On the procedure: Figure 1 PBI-4547 binding and activity on GPR84, GPR40, GPR120, and PPAR receptors. (A) Chemical structure of PBI-4547. (B) Gi pathway activation was monitored in HEK293 cells transfected with GPR84 and the Gαi2 activation biosensor. Cells were co-treated with […] sodium decanoate and increasing concentrations of PBI-4547, and BRET variation compared with vehicle was measured. (C) β-arrestin 2 recruitment to activated GPR120 receptor was monitored in HEK293 cells transfected with RLuc8-β-arrestin 2 and GPR120-GFP10. (D) Cells transfected with GPR40 and Gαq or Gαi2 activation biosensor were exposed to increasing concentrations of PBI-4547 or to 500 µM of sodium decanoate, and BRET variation compared with vehicle was measured. Cells were exposed to increasing concentrations of PBI-4547 or to 100 µM of GW9508, and BRET variation compared with vehicle was measured. […] Data in (B–D) are expressed as means ± SEM of 4–5 experiments; data in (E,F) are from a representative experiment from a total of 3 to 4 independent experiments. […]
BRET measurements in transiently transfected HEK293 cells were performed as previously described. Ligands were incubated with cells at room temperature for 10 min (G protein biosensors) or 25 min (β-arrestin/GPR120) before collecting BRET[2] readings between Rluc8 and GFP10.

The subject of the next experiment is HepG2 hepatocytes. Nature of the experiment: 14C-palmitate β-oxidation rate in HepG2 hepatocytes. On the procedure:
Moreover, hepatic expression of several genes involved in glucose metabolism including Pklr (pyruvate kinase L/R), G6pc (glucose-6-phosphatase, catalytic) and Slc2a2 (Glut2) was normalized by PBI-4547 (Fig. 4B). […] To test this hypothesis, mitochondrial respiration in HepG2 hepatocytes was measured (Fig. 4C). […] However, it did decrease maximal respiration and ATP production, in agreement with the metabolomics results.
Figure 4 Effects of PBI-4547 on glucose and FA metabolism in liver. (A) Relative gene expression levels of glucose and FA-related metabolism in liver from STD, HFD and HFD + PBI-4547 mice. Data are presented as geometric mean ± SEM (n ≥ 6 per group, one-way ANOVA with Dunnett’s multicomparison test vs HFD group). (B) 1H-NMR metabolic profiling in liver tissues. (C) Oxygen Consumption Rate (OCR) and Extracellular Acidifcation Rate (ECAR) in HepG2 hepatocytes. Measurements of basal respiration, maximal respiration, ATP production and proton leak in HepG2 hepatocytes treated or not with PBI-4547. (D) Oxidation rate of ^14C-palmitate in HepG2 hepatocytes treated or not with PBI-4547. Data are presented as mean ± SEM (n = 3, Student t test Ctrl vs PBI-4547). See also Fig. S2.

In another experiment the target is T2, GPR84 (Homo sapiens, UniProt Q9NQS5).
T2 construct: expressed in transfected cells; host or cells: HEK293
T2 sequence (Q9NQS5 whole entry, species assumed): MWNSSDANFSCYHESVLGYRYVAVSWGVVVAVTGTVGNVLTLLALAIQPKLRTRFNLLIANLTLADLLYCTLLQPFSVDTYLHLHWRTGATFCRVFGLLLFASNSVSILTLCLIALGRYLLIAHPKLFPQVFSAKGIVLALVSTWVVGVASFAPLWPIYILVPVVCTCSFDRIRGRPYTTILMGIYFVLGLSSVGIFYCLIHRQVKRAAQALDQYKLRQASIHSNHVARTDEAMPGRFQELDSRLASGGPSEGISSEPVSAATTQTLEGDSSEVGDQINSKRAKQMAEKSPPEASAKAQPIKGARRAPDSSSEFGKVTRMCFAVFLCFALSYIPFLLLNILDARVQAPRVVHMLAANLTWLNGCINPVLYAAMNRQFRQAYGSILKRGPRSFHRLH
Nature of the experiment: BRET Gαi2 activation biosensor in HEK293 cells transfected with GPR84. From the text: PBI-4547 (2-[3,5-dipentylphenyl]acetate sodium salt) is a medium-chain FA (MCFA) mimetic (Fig. 1A). Accordingly, we examined the signaling properties of PBI-4547 on receptors known to be activated by MCFAs. […] This biosensor consisted of an Rluc8-tagged Gαi2 subunit, a GFP10-tagged Gγ2 subunit, and an untagged Gβ1. Agonist stimulation and receptor activation triggers a physical separation between the Gα-Rluc8 donor and the GFP10-Gγ2 acceptor, resulting in a decrease in BRET signal, whose amplitude is correlated to ligand efficacy. […] (A) Chemical structure of PBI-4547. (B) Gi pathway activation was monitored in HEK293 cells transfected with GPR84 and the Gαi2 activation biosensor. […] (C) β-arrestin 2 recruitment to activated GPR120 receptor was monitored in HEK293 cells transfected with RLuc8-β-arrestin 2 and GPR120-GFP10. (D) Cells transfected with GPR40 and Gαq or Gαi2 activation biosensor were exposed to increasing concentrations of PBI-4547 or to 500 µM of sodium decanoate, and BRET variation compared with vehicle was measured. Cells were exposed to increasing concentrations of PBI-4547 or to 100 µM of GW9508, and BRET variation compared with vehicle was measured. (E) LanthaScreen TR-FRET competitive binding assay of PBI-4547 and PPAR control agonists to the LBD of PPARα, PPARδ and PPARγ. (F) Cell-based GAL4 transactivation assay in HEK293 cells transfected with the LBD of PPARα, PPARδ or PPARγ, and treated with increasing concentrations of PBI-4547 or PPAR control agonists. Data in (B–D) are expressed as means ± SEM of 4–5 experiments; data in (E,F) are from a representative experiment from a total of 3 to 4 independent experiments. BRET measurements in transiently transfected HEK293 cells were performed as previously described. Ligands were incubated with cells at room temperature for 10 min (G protein biosensors) or 25 min (β-arrestin/GPR120) before collecting BRET[2] readings between Rluc8 and GFP10.

T1 sequence (O14842 whole entry, species assumed): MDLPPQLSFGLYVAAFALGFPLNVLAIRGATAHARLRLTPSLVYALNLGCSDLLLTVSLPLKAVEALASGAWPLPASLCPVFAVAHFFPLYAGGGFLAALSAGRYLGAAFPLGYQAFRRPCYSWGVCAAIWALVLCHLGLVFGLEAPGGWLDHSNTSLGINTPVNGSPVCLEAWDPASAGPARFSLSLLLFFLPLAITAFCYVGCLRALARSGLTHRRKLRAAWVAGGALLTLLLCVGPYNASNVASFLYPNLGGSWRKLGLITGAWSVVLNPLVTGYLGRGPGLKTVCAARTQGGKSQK

`CCCCCc1cc(CCCCC)cc(CC(=O)[O-])c1.[Na+]` [PBI-4547, 2-[3,5-dipentylphenyl]acetate sodium salt]: the half-maximal effective concentration (EC50) at GPR40 (Gαi2 biosensor, read-out: EC50, GPR40 Gαi2 biosensor BRET signal decrease) stood at 27 µM; at GPR40 (Gαq biosensor, read-out: EC50, GPR40 Gαq biosensor BRET signal decrease), 30 µM. The “oxidation of 14C-palmitate (β-oxidation rate)” value in the experiment with HepG2 hepatocytes is “dose-dependently increased”. In addition, the IC50 at GPR84 (co-treated with 125 mM sodium decanoate and increasing concentrations of PBI-4547, read-out: IC50, inhibition of GPR84/Gαi2 activation) came out at 17 µM. For the same compound, the “GPR84/Gαi2-mediated BRET signal modulation (agonist mode)” value at GPR84 (compound alone vs vehicle) is “did not lead to GPR84/Gαi2-mediated BRET signal modulation”.
